Where two headings read alike, the source gives them in different places. Bridge positions count the residues as written; N and C are the ends. Peptide text beside a SMILES is read from it. I, II: the chains in the order shown.
Legend:
RXFP4 [1] = molecular target: T1, RXFP4 (Homo sapiens, UniProt Q8TDU9); test: Competition binding in CHO-K1-RXFP4 cells (Eu-DTPA-mINSL5); design: expressed in transfected cells; host or cells: CHO-K1 (ATCC), stably transfected
Protocol: (§1) Chinese hamster ovary CHO-K1 cells (sourced from American Type Culture Collection (ATCC), Maryland, USA) stably transfected with RXFP3[33] or RXFP4[9] were plated out onto precoated poly-L-lysine 96-well view plates at a density of 50 000 cells per well. Medium was aspirated off and the cells were washed with phosphate-buffered saline (PBS) before competition binding assays were performed with 5 nM Eu-H3B1–22R[34] (RXFP3 ligand) or 5 nM Eu-DTPA-mINSL5[9] (RXFP4 ligand) as previously described. Competition binding curves were performed in triplicate and each experiment was performed independently at least three times. Fluorescent measurements were carried out on a BMG POLARstar plate reader (BMG Labtech, Melbourne, Australia. Pooled data are presented as mean ± S.E of specific binding and are fitted using one-site binding curve in GraphPad Prism version 8 (GraphPad Inc., San Diego, USA). Statistical analyses were conducted using one-way analysis of variance with uncorrected Fisher’s least significant difference (LSD) post-hoc analysis in GraphPad Prism version 8.

RXFP3 [2] = molecular target: T2, RXFP3 (Homo sapiens, UniProt Q9NSD7); test: cAMP agonist assay (inhibition of forskolin-induced cAMP, pCRE β-galactosidase reporter) in CHO-K1-RXFP3 cells; format: cell-based; conditions: CHO-K1-RXFP3 cells, inhibition of 5 µM forskolin-induced cAMP, 6 hours; mean ± SEM, n in cell
T2 construct: expressed in transfected cells; host or cells: CHO-K1 (ATCC), stably transfected
T2 sequence (Q9NSD7 1-469): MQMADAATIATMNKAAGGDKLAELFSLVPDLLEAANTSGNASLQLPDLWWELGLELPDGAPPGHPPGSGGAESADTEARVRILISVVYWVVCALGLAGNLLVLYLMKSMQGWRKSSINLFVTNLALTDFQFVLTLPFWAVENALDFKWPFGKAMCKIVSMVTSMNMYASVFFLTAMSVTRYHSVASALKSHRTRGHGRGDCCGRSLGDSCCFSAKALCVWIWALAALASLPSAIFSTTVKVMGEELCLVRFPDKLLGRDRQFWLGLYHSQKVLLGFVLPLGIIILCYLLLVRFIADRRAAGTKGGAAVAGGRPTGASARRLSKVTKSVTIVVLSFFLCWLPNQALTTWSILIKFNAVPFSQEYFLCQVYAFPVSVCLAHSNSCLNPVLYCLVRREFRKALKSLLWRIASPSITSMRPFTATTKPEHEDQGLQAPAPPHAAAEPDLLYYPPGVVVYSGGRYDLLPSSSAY
Protocol: (§2) The peptides were tested for their ability to inhibit forskolin induced cAMP activity in CHO-K1-RXFP3 or CHO-K1-RXFP4 cells transfected with a pCRE (cAMP Response Element) β-galactosidase reporter plasmid as previously described[9],[34]. For agonist assays cells were stimulated with forskolin (5 µM for RXFP3, 1 µM for RXFP4) plus or minus increasing concentrations of each peptide for 6 hours. For antagonist assays cells were stimulated with forskolin as in agonist assays plus increasing concentrations of each peptide for 10 minutes followed by stimulation with agonist at an ~EC80 concentration for a further 6 hours (10 nM Analogue 2 for RXFP3 and 16.6 nM Analogue 13 for RXFP4). Each peptide was tested in triplicate and each experiment was performed independently at least three times. Agonist data was expressed as the % Forskolin activity whereby 100% was defined as Forskolin alone and 0% as maximum agonist stimulation (1 µM Analogue 2 for RXFP3 and 1 µM Analogue 13 for RXFP4). […] Data were analysed and plotted using GraphPad PRISM 8 and are expressed as the mean ± SEM of the pooled data. Statistical analysis was conducted using one-way ANOVA with Uncorrected Fisher’s LSD post-hoc analysis in GraphPad Prism version 8.

RXFP3 [3] = molecular target: T2, RXFP3; test: cAMP antagonist assay against 10 nM analogue 2 in CHO-K1-RXFP3 cells; format: cell-based; conditions: for Emax: SEM, read-out: RXFP3 Emax (antagonist efficacy)
Protocol: as §2

RXFP3 [4] = molecular target: T2, RXFP3; test: Competition binding in CHO-K1-RXFP3 cells (Eu-H3B1-22R)
Protocol: as §1

RXFP4 [5] = molecular target: T1, RXFP4; test: cAMP agonist assay (inhibition of forskolin-induced cAMP, pCRE β-galactosidase reporter) in CHO-K1-RXFP4 cells; format: cell-based; design: expressed in transfected cells; host or cells: CHO-K1 (ATCC), stably transfected; conditions: CHO-K1-RXFP4 cells, inhibition of 1 µM forskolin-induced cAMP, 6 hours; mean ± SEM, n in cell
Protocol: as §2

RXFP4 [6] = molecular target: T1, RXFP4; test: cAMP antagonist assay against 16.6 nM analogue 13 in CHO-K1-RXFP4 cells; format: cell-based; design: expressed in transfected cells; host or cells: CHO-K1 (ATCC), stably transfected; conditions: for Emax: SEM, read-out: RXFP4 Emax (antagonist efficacy)
Protocol: as §2

[7] = CHO-K1 cells stably transfected with RXFP4, competition with 5 nM Eu-DTPA-mINSL5, read-out: RXFP4 Binding Ki
[8] = CHO-K1-RXFP3 cells, peptide 10 minutes, then 10 nM analogue 2 for 6 hours, 5 µM forskolin, mean ± SEM, read-out: RXFP3 Antagonist potency pIC50 (converted)
[9] = CHO-K1 cells stably transfected with RXFP3, competition with 5 nM Eu-H3B1-22R, read-out: RXFP3 Binding Ki
[10] = CHO-K1-RXFP4 cells, block of 16.6 nM analogue 13, read-out: RXFP4 Antagonist potency IC50

T1 sequence (Q8TDU9 whole entry): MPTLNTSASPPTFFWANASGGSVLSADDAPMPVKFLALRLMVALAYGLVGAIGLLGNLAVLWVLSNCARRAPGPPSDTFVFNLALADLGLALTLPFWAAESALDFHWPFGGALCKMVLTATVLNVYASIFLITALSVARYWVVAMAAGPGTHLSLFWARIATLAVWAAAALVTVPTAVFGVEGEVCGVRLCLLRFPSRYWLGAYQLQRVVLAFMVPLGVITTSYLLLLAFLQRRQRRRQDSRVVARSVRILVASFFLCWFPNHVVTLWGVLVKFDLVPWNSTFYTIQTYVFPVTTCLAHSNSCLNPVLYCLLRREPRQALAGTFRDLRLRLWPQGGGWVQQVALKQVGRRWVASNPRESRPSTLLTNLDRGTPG

Structure (SMILES)	Ki (RXFP4 [1]) [nM]	RXFP3 Activity pEC50 (RXFP3 [2])	IC50 (RXFP3 [3]) [nM]	Emax (RXFP3 [3]) [%]	Ki (RXFP3 [4]) [nM]	RXFP4 Activity pEC50 (RXFP4 [5])	IC50 (RXFP4 [6]) [nM]	Emax (RXFP4 [6]) [%]	Ki (RXFP4 [1]; [7]) [nM]	IC50 (RXFP3 [3]; [8]) [nM]	Ki (RXFP3 [4]; [9]) [nM]	IC50 (RXFP4 [6]; [10]) [nM]
CC[C@H](C)[C@@H]1NC(=O)[C@H](Cc2ccccc2)NC(=O)[C@H](CCC(=O)O)NC(=O)[C@H](CCCNC(=N)N)NC(=O)CNC(=O)[C@@H](NC(=O)[C@H](CC(C)C)NC(=O)[C@H](CCCNC(=N)N)NC(=O)[C@@H](NC(=O)CNC(=O)[C@H](Cc2ccc(O)cc2)NC(=O)[C@@H]2CCCN2C(=O)[C@H](C)NC(=O)[C@H](C)NC(=O)[C@@H](N)CCCNC(=N)N)C(C)C)CSSC[C@H](N)C(=O)N[C@@H]([C@@H](C)O)C(=O)N[C@@H](CC(=O)O)C(=O)NCC(=O)N[C@@H](C)C(=O)N[C@@H](CO)C(=O)N[C@@H](CCSC)C(=O)N[C@@H](CCCCN)C(=O)N[C@@H](CC(=O)O)C(=O)N[C@@H](CC(C)C)C(=O)N[C@@H](CO)C(=O)N[C@@H](C)C(=O)N[C@@H](CC(C)C)C(=O)N[C@H](C(=O)O)CSSC[C@@H](C(=O)N[C@@H](CCCNC(=N)N)C(=O)O)NC(=O)[C@H]([C@@H](C)O)NC(=O)[C@H](Cc2ccccc2)NC(=O)[C@H]([C@@H](C)CC)NC(=O)[C@H](C(C)C)NC(=O)[C@H]([C@@H](C)O)NC(=O)[C@H](CCCNC(=N)N)NC1=O [Analogue 17] (I: H-RAAPYGVRLCGREFIRTVIFTCR-OH / II: H-CTDGASMKDLSALC-OH; disulfide I:10-II:1, I:22-II:14)	40.7	No activity (3)	> 10000	34.8 ± 0.9	19.1	Weak partial agonist (4)	34.7	36 ± 10				
CC[C@H](C)[C@@H]1NC(=O)[C@H](Cc2ccccc2)NC(=O)[C@H](CCC(=O)O)NC(=O)[C@H](CC(C)C)NC(=O)CNC(=O)[C@@H](NC(=O)[C@H](CC(C)C)NC(=O)[C@H](CCCNC(=N)N)NC(=O)[C@@H](NC(=O)CNC(=O)[C@H](Cc2ccc(O)cc2)NC(=O)[C@@H]2CCCN2C(=O)[C@H](C)NC(=O)[C@H](C)NC(=O)[C@@H](N)CCCNC(=N)N)C(C)C)CSSC[C@H](N)C(=O)N[C@@H]([C@@H](C)O)C(=O)N[C@@H](CC(=O)O)C(=O)NCC(=O)N[C@@H](C)C(=O)N[C@@H](CO)C(=O)N[C@@H](CCSC)C(=O)N[C@@H](CCCCN)C(=O)N[C@@H](CC(=O)O)C(=O)N[C@@H](CC(C)C)C(=O)N[C@@H](CO)C(=O)N[C@@H](C)C(=O)N[C@@H](CC(C)C)C(=O)N[C@H](C(=O)O)CSSC[C@@H](C(=O)N[C@@H](CCCNC(=N)N)C(=O)O)NC(=O)[C@H]([C@@H](C)O)NC(=O)[C@H](Cc2ccccc2)NC(=O)[C@H]([C@@H](C)CC)NC(=O)[C@H](C(C)C)NC(=O)[C@H](C)NC(=O)[C@H](CCCNC(=N)N)NC1=O [Analogue 18] (I: H-RAAPYGVRLCGLEFIRAVIFTCR-OH / II: H-CTDGASMKDLSALC-OH; disulfide I:10-II:1, I:22-II:14)		No activity (3)		47 ± 7.3		Weak partial agonist (3)		56.2 ± 11.8	14.8	> 10000	25.7	214
CC[C@H](C)[C@@H]1NC(=O)[C@H](Cc2ccccc2)NC(=O)[C@H](CCC(=O)O)NC(=O)[C@H](CCCNC(=N)N)NC(=O)CNC(=O)[C@@H](NC(=O)[C@H](CC(C)C)NC(=O)[C@H](CCCNC(=N)N)NC(=O)[C@@H](NC(=O)CNC(=O)[C@H](Cc2ccc(O)cc2)NC(=O)[C@H](CCCCN)NC(=O)[C@H](C)NC(=O)[C@H](C)NC(=O)[C@@H](N)CCCNC(=N)N)C(C)C)CSSC[C@H](N)C(=O)N[C@@H]([C@@H](C)O)C(=O)N[C@@H](CC(=O)O)C(=O)NCC(=O)N[C@@H](C)C(=O)N[C@@H](CO)C(=O)N[C@@H](CCSC)C(=O)N[C@@H](CCCCN)C(=O)N[C@@H](CC(=O)O)C(=O)N[C@@H](CC(C)C)C(=O)N[C@@H](CO)C(=O)N[C@@H](C)C(=O)N[C@@H](CC(C)C)C(=O)N[C@H](C(=O)O)CSSC[C@@H](C(=O)N[C@@H](CCCNC(=N)N)C(=O)O)NC(=O)[C@H]([C@@H](C)O)NC(=O)[C@H](Cc2ccccc2)NC(=O)[C@H]([C@@H](C)CC)NC(=O)[C@H](C(C)C)NC(=O)[C@H](C)NC(=O)[C@H](CCCNC(=N)N)NC1=O [Analogue 19] (I: H-RAAKYGVRLCGREFIRAVIFTCR-OH / II: H-CTDGASMKDLSALC-OH; disulfide I:10-II:1, I:22-II:14; N-terminus assumed)		No activity (3)		76.3 ± 1.8		Weak partial agonist (4)		71.3 ± 4.8	10.2	> 10000	7.94	79.4
